{"source": "patent CN117800914A", "about": "“一种抗SARS-CoV-2病毒奥密克戎突变种抑制剂” (Second Military Medical University SMMU, priority 2023, dated 2024)"}
{"test_system": "SARS-CoV-2 mutant strains (SARS-CoV-2突变株)", "conditions": "treatment of SARS-CoV-2 mutant strains; cited from earlier work"}
{"smiles": "CCC(CC)COC(=O)[C@H](C)N[P@](=O)(OC[C@H]1O[C@@](C#N)(c2ccc3c(N)ncnn23)[C@H](O)[C@@H]1O)Oc1ccccc1", "note": "[瑞德西韦]", "clinical performance in treating SARS-CoV-2 mutant strains (in words)": "不尽如人意"}
{"smiles": "NC(=O)c1nc(F)c[nH]c1=O", "note": "[法维拉韦]", "clinical performance in treating SARS-CoV-2 mutant strains (in words)": "不尽如人意"}
{"test_system": "SARS-CoV-2 Omicron mutant BA.2 (SARS-CoV-2奥密克戎毒突变种BA.2)", "assay_type": "cell-based, SARS-CoV-2 Omicron BA.2", "conditions": "20 h", "units": {"IC50": "nM"}}
{"smiles": "CO[C@H]1/C=C/C=C/C=C/C[C@H](OC(=O)[C@@H](C)NC(=O)CCC(C)C)[C@H](C)[C@@H](O)/C(C)=C\\CCc2ccc(F)c(c2)NC(=O)C1", "note": "[B8]", "IC50": 1100}
{"smiles": "CO[C@H]1/C=C/C=C/C=C/C[C@H](O)[C@H](C)[C@@H](OC(=O)[C@@H](C)NC(=O)CC(C)C)/C(C)=C\\CCc2ccc(F)c(c2)NC(=O)C1", "note": "[B3]", "IC50": 1190}
{"smiles": "CCC(C)C(=O)N[C@H](C)C(=O)O[C@H]1C/C=C/C=C/C=C/[C@H](OC)CC(=O)Nc2cc(ccc2F)CC/C=C(/C)[C@H](O)[C@H]1C", "note": "(some centres unmarked) [B5]", "IC50": 200}
{"smiles": "COc1cc2c(O)c(c1)NC(=O)C[C@@H](OC)/C=C/C=C/C=C/C[C@H](O)[C@H](C)[C@@H](OC(=O)[C@@H](C)NC(=O)CC(C)C)/C(C)=C\\CC2", "note": "[C8]", "IC50": 400}
{"smiles": "CO[C@H]1/C=C/C=C/C=C/C[C@H](OC(=O)[C@@H](C)NC(=O)CC(C)C)[C@H](C)[C@@H](O)/C(C)=C\\CCc2ccc(F)c(c2)NC(=O)C1", "note": "[B1]", "IC50": 300}
{"smiles": "CO[C@H]1/C=C/C=C/C=C/C[C@H](OC(=O)[C@@H](C)NC(=O)CC(C)C)[C@H](C)[C@@H](O)/C(C)=C\\CCc2cccc(c2)NC(=O)C1", "note": "[D1]", "IC50": "> 5000"}
{"smiles": "COc1cc2cc(c1)NC(=O)C[C@@H](OC)/C=C/C=C/C=C/C[C@H](O)[C@H](C)[C@@H](OC(=O)[C@@H](C)NC(=O)CC(C)C)/C(C)=C\\CC2", "note": "[C7]", "IC50": 825}
{"smiles": "CO[C@H]1/C=C/C=C/C=C/C[C@H](OC(=O)[C@@H](C)NC(=O)CCC(C)C)[C@H](C)[C@@H](O)/C(CO)=C\\CCc2cc(F)cc(c2)NC(=O)C1", "note": "[A6]", "IC50": 450}
{"smiles": "C/C=C(\\C)C(=O)N[C@H](C)C(=O)O[C@H]1C/C=C/C=C/C=C/[C@H](OC)CC(=O)Nc2cc(ccc2F)CC/C=C(/C)[C@H](O)[C@H]1C", "note": "[B6]", "IC50": 413}
